Source: patent publication US20210046106A1, “METHODS OF TREATING CANCER WITH ANDROGEN DEPRIVATION THERAPY IN COMBINATION WITH AN INHIBITOR OF THE SP1 TRANSCRIPTION FACTOR” (The Board of Trustees of the Leland Stanford Junior …, priority 2019, published 2021)

Assay: Phase 1 trial: Brief Pain Inventory
Format: in vivo, human
Settings: 10 point scale
Description: They also completed another pain inventory.
The pain inventory captured four categories of pain as follows: worst pain in last 24 hours, least pain in last 24 ours, average pain and pain right now. Pain was scored using a 10 point scale, on which 0 was no pain and 10 was severe pain. […] A change of at least one point was felt to be clinically meaningful.

[1] = 5.5 mg cohort (N=3), First follow-up
[2] = 11 mg cohort (N=3), First follow-up
[3] = 16.5 mg cohort (N=3), End of RT
[4] = 16.5 mg cohort (N=3), First follow-up
[5] = 33 mg cohort (N=5), First follow-up
[6] = 49.5 mg cohort (N=1), End of RT
[7] = 49.5 mg cohort (N=1), First follow-up

Question: With O=[Se](O)O [sodium selenite, Sodium selenite pentahydrate] as the compound, how does the “Average Pain, average change from baseline, Mean ± SD” value (5.5 mg cohort (N=3), End of RT) read?
Answer: −2.5 ± 0.7

Question: What about the “Least Pain Last 24 Hrs, average change from baseline, Mean ± SD” value (5.5 mg cohort (N=3), End of RT) of the same compound?
Answer: −1.5 ± 2.1

Question: And the “Pain Right Now, average change from baseline, Mean ± SD” value (5.5 mg cohort (N=3), End of RT)?
Answer: −2 ± 0

Question: And the “Worst Pain Last 24 Hrs, average change from baseline, Mean ± SD” value (5.5 mg cohort (N=3), End of RT)?
Answer: −4 ± 1.4

Question: What about the “Average Pain, average change from baseline, Mean ± SD” value [1] of the same compound?
Answer: −1.5 ± 0.7

Question: And the “Least Pain Last 24 Hrs, average change from baseline, Mean ± SD” value [1]?
Answer: −1.5 ± 1.4

Question: What about the “Pain Right Now, average change from baseline, Mean ± SD” value [1] of the same compound?
Answer: −2 ± 0

Question: And the “Worst Pain Last 24 Hrs, average change from baseline, Mean ± SD” value [1]?
Answer: −2.5 ± 0.7

Question: What about the “Average Pain, average change from baseline, Mean ± SD” value (11 mg cohort (N=3), End of RT) of the same compound?
Answer: −2.3 ± 4.0

Question: What about the “Least Pain Last 24 Hrs, average change from baseline, Mean ± SD” value (11 mg cohort (N=3), End of RT) of the same compound?
Answer: −2.7 ± 3.8

Question: And the “Pain Right Now, average change from baseline, Mean ± SD” value (11 mg cohort (N=3), End of RT)?
Answer: 1.7 ± 2.9

Question: And the “Worst Pain Last 24 Hrs, average change from baseline, Mean ± SD” value (11 mg cohort (N=3), End of RT)?
Answer: −1.7 ± 1.5

Question: What about the “Average Pain, average change from baseline, Mean ± SD” value [2] of the same compound?
Answer: −0.7 ± 4.6

Question: What about the “Least Pain Last 24 Hrs, average change from baseline, Mean ± SD” value [2] of the same compound?
Answer: −1.3 ± 4.9

Question: And the “Pain Right Now, average change from baseline, Mean ± SD” value [2]?
Answer: 1.7 ± 1.2

Question: What about the “Worst Pain Last 24 Hrs, average change from baseline, Mean ± SD” value [2] of the same compound?
Answer: −0.7 ± 5.0

Question: And the “Average Pain, average change from baseline, Mean ± SD” value [3]?
Answer: −1.5 ± 3.5

Question: And the “Least Pain Last 24 Hrs, average change from baseline, Mean ± SD” value [3]?
Answer: −1 ± 2.8

Question: What about the “Pain Right Now, average change from baseline, Mean ± SD” value [3] of the same compound?
Answer: −0.5 ± 2.1

Question: What about the “Worst Pain Last 24 Hrs, average change from baseline, Mean ± SD” value [3] of the same compound?
Answer: −1 ± 1.4

Question: And the “Average Pain, average change from baseline, Mean ± SD” value [4]?
Answer: −2 ± 2

Question: And the “Least Pain Last 24 Hrs, average change from baseline, Mean ± SD” value [4]?
Answer: −2.3 ± 2.1

Question: What about the “Pain Right Now, average change from baseline, Mean ± SD” value [4] of the same compound?
Answer: −2.7 ± 3.8

Question: What about the “Worst Pain Last 24 Hrs, average change from baseline, Mean ± SD” value [4] of the same compound?
Answer: −0.7 ± 0.6

Question: What about the “Average Pain, average change from baseline, Mean ± SD” value (33 mg cohort (N=5), End of RT) of the same compound?
Answer: −1.2 ± 1.3

Question: And the “Least Pain Last 24 Hrs, average change from baseline, Mean ± SD” value (33 mg cohort (N=5), End of RT)?
Answer: −0.2 ± 0.5

Question: And the “Pain Right Now, average change from baseline, Mean ± SD” value (33 mg cohort (N=5), End of RT)?
Answer: −0.6 ± 1.1

Question: What about the “Worst Pain Last 24 Hrs, average change from baseline, Mean ± SD” value (33 mg cohort (N=5), End of RT) of the same compound?
Answer: −1 ± 2

Question: And the “Average Pain, average change from baseline, Mean ± SD” value [5]?
Answer: −1 ± 1

Question: What about the “Least Pain Last 24 Hrs, average change from baseline, Mean ± SD” value [5] of the same compound?
Answer: 0 ± 1

Question: What about the “Pain Right Now, average change from baseline, Mean ± SD” value [5] of the same compound?
Answer: −0.8 ± 1.3

Question: And the “Worst Pain Last 24 Hrs, average change from baseline, Mean ± SD” value [5]?
Answer: −2 ± 2

Question: And the “Average Pain, average change from baseline, Mean ± SD” value [6]?
Answer: −4.5 ± 0

Question: What about the “Least Pain Last 24 Hrs, average change from baseline, Mean ± SD” value [6] of the same compound?
Answer: −5 ± 0

Question: What about the “Pain Right Now, average change from baseline, Mean ± SD” value [6] of the same compound?
Answer: −4 ± 0

Question: What about the “Worst Pain Last 24 Hrs, average change from baseline, Mean ± SD” value [6] of the same compound?
Answer: −6 ± 0

Question: And the “Average Pain, average change from baseline, Mean ± SD” value [7]?
Answer: −8.5 ± 0

Question: What about the “Least Pain Last 24 Hrs, average change from baseline, Mean ± SD” value [7] of the same compound?
Answer: −9 ± 0

Question: And the “Pain Right Now, average change from baseline, Mean ± SD” value [7]?
Answer: −8 ± 0

Question: What about the “Worst Pain Last 24 Hrs, average change from baseline, Mean ± SD” value [7] of the same compound?
Answer: −10 ± 0
